Measurements published in ChEMBL document CHEMBL1201862, “PubChem BioAssay data set” (2004).
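Five concentrations, 48 hours, 96-well plates. GI50 is the concentration that inhibits growth by half.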 Activity calls are given as the source filed them. No stated cut-off is given here; in the data, active = GI50 up to about 1.1 µM and inactive = higher.

Columns and labels:
Assay in all cases: NCI-60 cell line screen, 48 h
RPMI-8226 = test system: RPMI-8226
MOLT-4 = test system: MOLT-4
ACHN = test system: ACHN
A498 = test system: A498
Malme-3M = test system: Malme-3M
NCI-H226 = test system: NCI-H226
SK-MEL-2 = test system: SK-MEL-2
RXF 393 = test system: RXF 393
T47D = test system: T47D
HCT-116 = test system: HCT-116
MDA-MB-231 = test system: MDA-MB-231
KM12 = test system: KM12
TK-10 = test system: TK-10
SW-620 = test system: SW-620
K562 = test system: K562
OVCAR-3 = test system: OVCAR-3
SF-268 = test system: SF-268
NCI/ADR-RES = test system: NCI/ADR-RES
786-0 = test system: 786-0
SK-OV-3 = test system: SK-OV-3
UACC-62 = test system: UACC-62
SR = test system: SR
HT-29 = test system: HT-29
SNB-19 = test system: SNB-19
SK-MEL-5 = test system: SK-MEL-5
CCRF-CEM = test system: CCRF-CEM
PC-3 = test system: PC-3
M14 = test system: M14
NCI-H23 = test system: NCI-H23
DU-145 = test system: DU-145
OVCAR-8 = test system: OVCAR-8
IGROV-1 = test system: IGROV-1
UO-31 = test system: UO-31
HCT-15 = test system: HCT-15
SN12C = test system: SN12C
UACC-257 = test system: UACC-257
OVCAR-4 = test system: OVCAR-4
BT-549 = test system: BT-549
A549 = test system: A549
COLO 205 = test system: COLO 205
MDA-MB-435 = test system: MDA-MB-435
HL-60 = test system: HL-60
OVCAR-5 = test system: OVCAR-5
EKVX = test system: EKVX
U-251 = test system: U-251
HOP-92 = test system: HOP-92
NCI-H460 = test system: NCI-H460
SF-539 = test system: SF-539
CAKI-1 = test system: CAKI-1
Hs-578T = test system: Hs-578T
HOP-62 = test system: HOP-62
MDA-N = test system: MDA-N
SF-295 = test system: SF-295
LOX IMVI = test system: LOX IMVI
NCI-H522 = test system: NCI-H522
SK-MEL-28 = test system: SK-MEL-28
MCF7 = test system: MCF7
SNB-75 = test system: SNB-75
HCC 2998 = test system: HCC 2998

Measured: GI50

O=C1CCCCC(=O)Nc2ccccc2N1
> 100 µM: HCT-15
inactive: RPMI-8226 > 100 µM | MOLT-4 > 100 µM | ACHN > 100 µM | A498 > 100 µM | Malme-3M > 100 µM | NCI-H226 > 100 µM | SK-MEL-2 > 100 µM | RXF 393 > 100 µM | T47D > 100 µM | HCT-116 > 100 µM | MDA-MB-231 > 100 µM | KM12 > 100 µM | TK-10 > 100 µM | SW-620 > 100 µM | K562 > 100 µM | OVCAR-3 > 100 µM | SF-268 > 100 µM | NCI/ADR-RES > 100 µM | 786-0 > 100 µM | SK-OV-3 > 100 µM | UACC-62 > 100 µM | SR 39.4 µM | HT-29 > 100 µM | SNB-19 > 100 µM | SK-MEL-5 > 100 µM | CCRF-CEM > 100 µM | PC-3 > 100 µM | M14 > 100 µM | NCI-H23 > 100 µM | DU-145 > 100 µM | OVCAR-8 > 100 µM | IGROV-1 > 100 µM | UO-31 > 100 µM | SN12C > 100 µM | UACC-257 > 100 µM | OVCAR-4 > 100 µM | BT-549 > 100 µM | A549 > 100 µM | COLO 205 > 100 µM | MDA-MB-435 > 100 µM | HL-60 > 100 µM | OVCAR-5 > 100 µM | EKVX > 100 µM | U-251 > 100 µM | HOP-92 > 100 µM | NCI-H460 > 100 µM | SF-539 > 100 µM | CAKI-1 > 100 µM | Hs-578T > 100 µM | HOP-62 > 100 µM | MDA-N > 100 µM | SF-295 > 100 µM | LOX IMVI > 100 µM | NCI-H522 > 100 µM | SK-MEL-28 > 100 µM

COc1cc(OC)cc(-c2cc(=O)c3c(OC)c(OC)c(OC)c(OC)c3o2)c1
inactive: RPMI-8226 16.9 µM | MOLT-4 18.3 µM | ACHN 27.2 µM | A498 23 µM | Malme-3M 31.6 µM | NCI-H226 32.1 µM | SK-MEL-2 18 µM | RXF 393 18.2 µM | T47D 20.9 µM | HCT-116 31.3 µM | MDA-MB-231 59.7 µM | TK-10 70.6 µM | SW-620 35.7 µM | K562 20.7 µM | OVCAR-3 18.8 µM | SF-268 29.6 µM | NCI/ADR-RES 29.8 µM | 786-0 29.9 µM | SK-OV-3 5.93 µM | UACC-62 31.9 µM | SR > 100 µM | HT-29 28.7 µM | SNB-19 38.5 µM | SK-MEL-5 19.8 µM | CCRF-CEM 20.5 µM | M14 37.2 µM | NCI-H23 52.1 µM | DU-145 30.2 µM | OVCAR-8 33.6 µM | IGROV-1 32.2 µM | UO-31 10.8 µM | SN12C 26.4 µM | UACC-257 39.2 µM | OVCAR-4 22.9 µM | BT-549 41.1 µM | A549 33.8 µM | COLO 205 16.3 µM | MDA-MB-435 32.8 µM | HL-60 7.26 µM | OVCAR-5 47.3 µM | EKVX 29.2 µM | U-251 31.9 µM | MCF7 63.7 µM | HOP-92 16.7 µM | NCI-H460 29 µM | SF-539 80 µM | CAKI-1 > 100 µM | Hs-578T 29.3 µM | SNB-75 20 µM | HCC 2998 31.7 µM | HOP-62 32.6 µM | MDA-N 41.2 µM | SF-295 23 µM | LOX IMVI 35.5 µM | NCI-H522 21.2 µM | SK-MEL-28 40.3 µM
33.3 µM: HCT-15
